The target in this experiment is Neuronal acetylcholine receptor subunit alpha-4 (Rattus norvegicus, UniProt P09483).

The text below walks through data of BindingDB's records for doi:10.1016/j.bmc.2007.10.027 (Research Triangle Institute, 2008).

SMILES strings stand for the structures.

By Ki is commonly meant the equilibrium dissociation constant of an inhibitor or competing ligand from its target. Low readings indicate higher affinity, high ones lower affinity.

Neuronal acetylcholine receptor subunit alpha-4, sequence (P09483 whole entry): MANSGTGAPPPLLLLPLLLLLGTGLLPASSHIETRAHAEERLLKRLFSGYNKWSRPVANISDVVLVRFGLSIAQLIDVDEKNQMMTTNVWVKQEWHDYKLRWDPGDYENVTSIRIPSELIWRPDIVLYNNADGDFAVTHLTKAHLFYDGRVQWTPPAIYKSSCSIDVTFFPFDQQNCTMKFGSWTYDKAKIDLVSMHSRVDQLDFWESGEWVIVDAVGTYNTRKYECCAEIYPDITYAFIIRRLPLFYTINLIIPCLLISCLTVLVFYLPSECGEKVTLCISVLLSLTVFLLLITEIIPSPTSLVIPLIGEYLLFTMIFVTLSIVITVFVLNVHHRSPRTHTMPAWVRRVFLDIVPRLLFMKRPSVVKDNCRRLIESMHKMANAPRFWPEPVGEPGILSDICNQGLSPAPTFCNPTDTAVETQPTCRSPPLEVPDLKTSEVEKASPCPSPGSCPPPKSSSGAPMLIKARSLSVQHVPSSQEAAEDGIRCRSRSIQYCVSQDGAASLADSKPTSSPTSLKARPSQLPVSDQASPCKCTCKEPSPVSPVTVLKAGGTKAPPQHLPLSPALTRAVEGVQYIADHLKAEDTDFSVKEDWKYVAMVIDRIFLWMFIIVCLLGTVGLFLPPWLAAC

In turn, `Nc1cccc(-c2cc(C3CC4CCC3N4)cnc2F)c1` (racemic) [CAS_45263775] returned a Ki of 0.1 nM. In the case of `COc1cccc(-c2cc(C3CC4CCC3N4)cnc2F)c1` (racemic) [CAS_45266054], the inhibitory constant (Ki) came to 0.12 nM. Turning to `c1cncc(C2CC3CCC2N3)c1` (centres undefined) [2-(pyridin-3-yl)-7-aza-bicyclo[2.2.1]heptane], the Ki came out at 0.02 nM. For `Fc1ncc(C2CC3CCC2N3)cc1-c1ccccc1` (centres undefined) [NSC_45263762] the value was 0.24 nM.
